Experimental data published in PubChem BioAssay (NCI).
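Tested at 5 concentrations; 48 h exposure; 96-well plates; endpoints linearly interpolated, else capped at highest concentration. TGI denotes the concentration required for complete inhibition of growth.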

What was measured:
Assay in all cases: NCI anticancer screen, dose series, 48 h
U251 CNS = test system: U251 CNS
NCI-H23 lung = test system: NCI-H23 lung
UACC-62 melanoma = test system: UACC-62 melanoma
SK-MEL-28 melanoma = test system: SK-MEL-28 melanoma
DU-145 prostate = test system: DU-145 prostate
MDA-MB-231 breast = test system: MDA-MB-231 breast
786-0 renal = test system: 786-0 renal
EKVX NSCLC = test system: EKVX NSCLC
SF-295 CNS = test system: SF-295 CNS
T-47D breast = test system: T-47D breast
MDA-N = test system: MDA-N
SW-620 colon = test system: SW-620 colon
NCI/ADR-RES ovarian = test system: NCI/ADR-RES ovarian
COLO 205 colon = test system: COLO 205 colon
HOP-92 NSCLC = test system: HOP-92 NSCLC
OVCAR-5 ovarian = test system: OVCAR-5 ovarian
UO-31 renal = test system: UO-31 renal
HOP-62 NSCLC = test system: HOP-62 NSCLC
SNB-19 CNS = test system: SNB-19 CNS
A549 NSCLC = test system: A549 NSCLC
SK-MEL-2 melanoma = test system: SK-MEL-2 melanoma
MOLT-4 leukemia = test system: MOLT-4 leukemia
UACC-257 melanoma = test system: UACC-257 melanoma
HCC-2998 colon = test system: HCC-2998 colon
PC-3 prostate = test system: PC-3 prostate
SR leukemia = test system: SR leukemia
SF-539 CNS = test system: SF-539 CNS
OVCAR-4 ovarian = test system: OVCAR-4 ovarian
ACHN renal = test system: ACHN renal
TK-10 renal = test system: TK-10 renal
MDA-MB-435 = test system: MDA-MB-435
CCRF-CEM leukemia = test system: CCRF-CEM leukemia
OVCAR-8 ovarian = test system: OVCAR-8 ovarian
SK-MEL-5 melanoma = test system: SK-MEL-5 melanoma
K-562 leukemia = test system: K-562 leukemia
RPMI-8226 leukemia = test system: RPMI-8226 leukemia
MCF7 breast = test system: MCF7 breast
HL-60(TB) leukemia = test system: HL-60(TB) leukemia
HT29 colon = test system: HT29 colon
MALME-3M melanoma = test system: MALME-3M melanoma
NCI-H522 lung = test system: NCI-H522 lung
LOX IMVI melanoma = test system: LOX IMVI melanoma
OVCAR-3 ovarian = test system: OVCAR-3 ovarian
RXF 393 renal = test system: RXF 393 renal
SNB-75 CNS = test system: SNB-75 CNS
SK-OV-3 ovarian = test system: SK-OV-3 ovarian
M14 melanoma = test system: M14 melanoma
NCI-H226 lung = test system: NCI-H226 lung
A498 renal = test system: A498 renal
KM12 colon = test system: KM12 colon
NCI-H460 lung = test system: NCI-H460 lung
IGROV1 ovarian = test system: IGROV1 ovarian
CAKI-1 renal = test system: CAKI-1 renal
SF-268 CNS = test system: SF-268 CNS
HS 578T breast = test system: HS 578T breast
HCT-15 colon = test system: HCT-15 colon
HCT-116 colon = test system: HCT-116 colon
SN12C renal = test system: SN12C renal

`CCCC[C@@H](C)/C=C1\CN2CCC[C@H]2[C@@](C)(O)[C@@H]1O` showed a TGI (U251 CNS) greater than 100 µM, a TGI (NCI-H23 lung) greater than 100 µM and a TGI (UACC-62 melanoma) greater than 100 µM. For the same molecule, the TGI (SK-MEL-28 melanoma) was greater than 100 µM, the TGI (DU-145 prostate) was 60.4 µM and the TGI (MDA-MB-231 breast) was greater than 100 µM. The TGI (786-0 renal) was greater than 100 µM, the TGI (EKVX NSCLC) was greater than 100 µM and the TGI (SF-295 CNS) was greater than 100 µM. The TGI (T-47D breast) was greater than 100 µM, the TGI (MDA-N) was greater than 100 µM and the TGI (SW-620 colon) was greater than 100 µM. For the same molecule, the TGI (NCI/ADR-RES ovarian) was greater than 100 µM, the TGI (COLO 205 colon) was greater than 100 µM and the TGI (HOP-92 NSCLC) was 73.6 µM. It also gave a TGI (OVCAR-5 ovarian) greater than 100 µM, a TGI (UO-31 renal) greater than 100 µM and a TGI (HOP-62 NSCLC) greater than 100 µM. For the same molecule, the TGI (SNB-19 CNS) was greater than 100 µM, the TGI (A549 NSCLC) was greater than 100 µM and the TGI (SK-MEL-2 melanoma) was greater than 100 µM. It also gave a TGI (MOLT-4 leukemia) greater than 100 µM, a TGI (UACC-257 melanoma) greater than 100 µM and a TGI (HCC-2998 colon) greater than 100 µM. The TGI (PC-3 prostate) was greater than 100 µM, the TGI (SR leukemia) was greater than 100 µM and the TGI (SF-539 CNS) was greater than 100 µM. The TGI (OVCAR-4 ovarian) was greater than 100 µM, the TGI (ACHN renal) was greater than 100 µM and the TGI (TK-10 renal) was greater than 100 µM. For the same molecule, the TGI (MDA-MB-435) was greater than 100 µM, the TGI (CCRF-CEM leukemia) was greater than 100 µM and the TGI (OVCAR-8 ovarian) was greater than 100 µM. The TGI (SK-MEL-5 melanoma) was greater than 100 µM, the TGI (K-562 leukemia) was greater than 100 µM and the TGI (RPMI-8226 leukemia) was greater than 100 µM. It also gave a TGI (MCF7 breast) greater than 100 µM, a TGI (HL-60(TB) leukemia) of 11 µM and a TGI (HT29 colon) greater than 100 µM. The TGI (MALME-3M melanoma) was greater than 100 µM, the TGI (NCI-H522 lung) was greater than 100 µM and the TGI (LOX IMVI melanoma) was greater than 100 µM. It also gave a TGI (OVCAR-3 ovarian) greater than 100 µM, a TGI (RXF 393 renal) of 38.1 µM and a TGI (SNB-75 CNS) of 85.1 µM. The TGI (SK-OV-3 ovarian) was greater than 100 µM, the TGI (M14 melanoma) was greater than 100 µM and the TGI (NCI-H226 lung) was greater than 100000 nM. The TGI (A498 renal) was greater than 100000 nM, the TGI (KM12 colon) was greater than 100 µM and the TGI (NCI-H460 lung) was greater than 100 µM. For the same molecule, the TGI (IGROV1 ovarian) was greater than 100 µM, the TGI (CAKI-1 renal) was 71.2 µM and the TGI (SF-268 CNS) was greater than 100 µM. The TGI (HS 578T breast) was greater than 100 µM and the TGI (HCT-15 colon) was greater than 100 µM.
With `CCCCc1ccc(-n2c(C)c(COC(=O)NC)c(COC(=O)NC)c2C)cc1` the TGI (U251 CNS) was 17.4 µM, the TGI (NCI-H23 lung) was 26.4 µM and the TGI (HCT-116 colon) was 17.8 µM. For the same molecule, the TGI (UACC-62 melanoma) was 10.5 µM, the TGI (SK-MEL-28 melanoma) was 33.8 µM and the TGI (DU-145 prostate) was 26.3 µM. The TGI (MDA-MB-231 breast) was 17.8 µM, the TGI (786-0 renal) was 16 µM and the TGI (EKVX NSCLC) was 27.8 µM. The TGI (SF-295 CNS) was 24.4 µM, the TGI (SN12C renal) was 14.5 µM and the TGI (T-47D breast) was 27 µM. It also gave a TGI (MDA-N) of 31.3 µM, a TGI (SW-620 colon) of 21.4 µM and a TGI (NCI/ADR-RES ovarian) of 27.4 µM. For the same molecule, the TGI (COLO 205 colon) was 19.6 µM, the TGI (HOP-92 NSCLC) was 11.5 µM and the TGI (OVCAR-5 ovarian) was 17.1 µM. It also gave a TGI (UO-31 renal) of 10.6 µM, a TGI (HOP-62 NSCLC) of 21.6 µM and a TGI (SNB-19 CNS) of 30.4 µM. The TGI (A549 NSCLC) was 19.6 µM, the TGI (UACC-257 melanoma) was 24 µM and the TGI (HCC-2998 colon) was 30.7 µM. The TGI (PC-3 prostate) was 32 µM, the TGI (SR leukemia) was 17.2 µM and the TGI (SF-539 CNS) was 15.9 µM. The TGI (ACHN renal) was 7.22 µM, the TGI (TK-10 renal) was 12.4 µM and the TGI (MDA-MB-435) was 28.1 µM. For the same molecule, the TGI (CCRF-CEM leukemia) was 18.4 µM, the TGI (OVCAR-8 ovarian) was 16.5 µM and the TGI (SK-MEL-5 melanoma) was 23.5 µM. It also gave a TGI (K-562 leukemia) greater than 100 µM, a TGI (RPMI-8226 leukemia) of 19.8 µM and a TGI (MCF7 breast) of 19.3 µM. It also gave a TGI (HL-60(TB) leukemia) of 24.4 µM, a TGI (HT29 colon) of 24.9 µM and a TGI (MALME-3M melanoma) of 22 µM. The TGI (NCI-H522 lung) was 9.3 µM, the TGI (LOX IMVI melanoma) was 18.4 µM and the TGI (OVCAR-3 ovarian) was 24.5 µM. For the same molecule, the TGI (RXF 393 renal) was 9.8 µM, the TGI (SNB-75 CNS) was 19.4 µM and the TGI (SK-OV-3 ovarian) was 14.1 µM. For the same molecule, the TGI (M14 melanoma) was 24.5 µM, the TGI (NCI-H226 lung) was 2850 nM and the TGI (A498 renal) was 2600 nM. The TGI (KM12 colon) was 29.3 µM, the TGI (NCI-H460 lung) was 18 µM and the TGI (CAKI-1 renal) was 15.9 µM. It also gave a TGI (SF-268 CNS) of 20.3 µM, a TGI (HS 578T breast) of 45.9 µM and a TGI (HCT-15 colon) of 20.9 µM.
